How the values were obtained:
Format in all cases: in vivo
Settings in all cases: foliar, 20-22 days
[1] = system: Apera spica-venti (APESV); assay: Postemergence herbicidal activity, greenhouse, APESV
Method: (§1) Evaluation of Postemergence Herbicidal Activity of Mixtures in Cereal Crops
(§2) Seeds of the desired test plant species were planted in Sun Gro MetroMix® 306 planting mixture, which typically has a pH of 6.0 to 6.8 and an organic matter content of about 30 percent, in plastic pots with a surface area of 103.2 square centimeters (cm^2). […] The plants were grown for 7-36 days in a greenhouse with an approximate 14 hour photoperiod which was maintained at about 18° C. during the day and 17° C. during the night. Nutrients and water were added on a regular basis and supplemental lighting was provided with overhead metal halide 1000-Watt lamps as necessary. The plants were employed for testing when they reached the second or third true leaf stage.
(§3) Treatments consisted of the benzyl ester of the compound of formula (I) (Compound A as listed in Tables 1-8) and a second cereal herbicide alone and in combination. […] The concentrated stock solutions were diluted to 1.5 mg ai/mL with the addition of 2 volumes of an aqueous mixture containing acetone, water, isopropyl alcohol, DMSO, Agri-dex crop oil concentrate, and Triton® X-77 surfactant in a 64.7:26.0:6.7:2.0:0.7:0.01 v/v ratio. A dilution solution was prepared by mixing 1 volume of 97:3 v/v acetone/DMSO and 2 volumes of an aqueous mixture containing acetone, water, isopropyl alcohol, DMSO, Agri-dex crop oil concentrate, and Triton® X-77 surfactant in a 64.7:26.0:6.7:2.0:0.7:0.01 v/v ratio. Compound requirements are based upon a 12 mL application volume at a rate of 187 liters per hectare (L/ha). […] Formulated compounds were applied to the plant material with an overhead Mandel track sprayer equipped with 8002E nozzles calibrated to deliver 187 L/ha over an application area of 0.503 square meters (m^2) at a spray height of 18 inches (43 cm) above average plant canopy. Control plants were sprayed in the same manner with the solvent blank.
(§4) The treated plants and control plants were placed in a greenhouse as described above and watered by sub-irrigation to prevent wash-off of the test compounds. After 20-22 days, the condition of the test plants as compared with that of the control plants was determined visually and scored on a scale of 0 to 100 percent where 0 corresponds to no injury and 100 corresponds to complete kill.
(§5) Colby's equation was used to determine the herbicidal effects expected from the mixtures (Colby, S. R. 1967. Calculation of the synergistic and antagonistic response of herbicide combinations. Weeds 15:20-22.). Specifically, the following equation was used to calculate the expected activity of mixtures containing two active ingredients, A and B: Expected=A+B−(A×B/100) • A=observed efficacy of active ingredient A at the same concentration as used in the mixture. • B=observed efficacy of active ingredient B at the same concentration as used in the mixture.

Hordeum vulgare (HORVS) = assay: Postemergence herbicidal activity, greenhouse, HORVS
Method: as §1, §2
(§6) Treatments consisted of the benzyl ester of the compound of formula (I) (Compound A as listed in Tables 1-8) and a second cereal herbicide alone and in combination. […]
as §4, with “kill. […]” for “kill.”

Papaver rhoeas (PAPRH) = assay: Postemergence herbicidal activity, greenhouse, PAPRH
Method: as §1, §2, §3, §4, §5

Salsola tragus (SASKR) = assay: Postemergence herbicidal activity, greenhouse, SASKR
Method: as §1, §2, §3, §4, §5

Viola tricolor (VIOTR) = assay: Postemergence herbicidal activity, greenhouse, VIOTR
Method: as §1, §2, §3, §4, §5

Setaria viridis (SETVI) = assay: Postemergence herbicidal activity, greenhouse, SETVI
Method: as §1, §2, §3, §4
(§7) Colby's equation was used to determine the herbicidal effects expected from the mixtures (Colby, S. R. 1967. Calculation of the synergistic and antagonistic response of herbicide combinations. Weeds 15:20-22.). […]

[2] = system: Matricaria chamomila (MATCH); assay: Postemergence herbicidal activity, greenhouse, MATCH
Method: as §1, §2, §3, §4, §5

[3] = system: Alopecurus myosuroides (ALOMY); assay: Postemergence herbicidal activity, greenhouse, ALOMY
Method: as §1, §2, §3, §4, §5

Stellaria media (STEME) = assay: Postemergence herbicidal activity, greenhouse, STEME
Method: as §1, §2, §3, §4, §5

Cirsium arvense (CIRAR) = assay: Postemergence herbicidal activity, greenhouse, CIRAR
Method: as §1, §2, §3, §4, §5

Kochia scoparia (KCHSC) = assay: Postemergence herbicidal activity, greenhouse, KCHSC
Method: as §1, §2, §3, §4, §5

[4] = system: Triticum aestivum (TRZAW); assay: Postemergence herbicidal activity, greenhouse, TRZAW
Method: as §1, §2, §3, §4, §5

[5] = system: Chenopodium album (CHEAL); assay: Postemergence herbicidal activity, greenhouse, CHEAL
Method: as §1, §2, §6
as §4, with “kill. […]” for “kill.”

[6] = system: Triticum aestivum (TRZAS); assay: Postemergence herbicidal activity, greenhouse, TRZAS
Method: as §1, §2, §6
as §4, with “kill. […]” for “kill.”

Veronica persica (VERPE) = assay: Postemergence herbicidal activity, greenhouse, VERPE
Method: as §1, §2, §3, §4, §5

[7] = system: Lolium multiflorum subsp. gaudini (LOLMG); assay: Postemergence herbicidal activity, greenhouse, LOLMG
Method: as §1, §2, §3, §4, §5

Lamium purpureum (LAMPU) = assay: Postemergence herbicidal activity, greenhouse, LAMPU
Method: as §1, §2, §3, §4, §7

Galium aparine (GALAP) = assay: Postemergence herbicidal activity, greenhouse, GALAP
Method: as §1, §2, §6
as §4, with “kill. […]” for “kill.”

SMILES: COc1c(Cl)ccc(-c2nc(C(=O)OCc3ccccc3)c(Cl)c(N)c2F)c1F [Compound A, benzyl ester of 4-amino-3-chloro-5-fluoro-6-(4-chloro-2-fluoro-3-methoxyphenyl)pyridine-2-carboxylic acid]
- APESV Obs ([1]; Compound A 5 g ha): 0%
- APESV Obs ([1]; Compound A 5 g/ha): 0%
- APESV Obs ([1]; Compound A 10 g ha): 0%
- APESV Obs ([1]; Compound A 10 g/ha): 0%
- HORVS Obs (Hordeum vulgare (HORVS); Compound A 2.5 g ha): 0%
- HORVS Obs (Hordeum vulgare (HORVS); Compound A 5 g ha): 0%
- PAPRH Obs (Papaver rhoeas (PAPRH); Compound A 5 g ai/ha): 46%
- PAPRH Obs (Papaver rhoeas (PAPRH); Compound A 10 g ai/ha): 48%
- SASKR Obs (Salsola tragus (SASKR); Compound A 2.5 g ha): 10%
- SASKR Obs (Salsola tragus (SASKR); Compound A 5 g ai/ha): 75%
- SASKR Obs (Salsola tragus (SASKR); Compound A 5 g ha): 60%
- SASKR Obs (Salsola tragus (SASKR); Compound A 10 g ai/ha): 78%
- VIOTR Obs (Viola tricolor (VIOTR); Compound A 2.5 g ha): 10%
- VIOTR Obs (Viola tricolor (VIOTR); Compound A 5 g ai/ha): 27%
- VIOTR Obs (Viola tricolor (VIOTR); Compound A 5 g ha): 10%
- VIOTR Obs (Viola tricolor (VIOTR); Compound A 10 g ai/ha): 37%
- SETVI Obs (Setaria viridis (SETVI); Compound A 5 g ha): 0%
- SETVI Obs (Setaria viridis (SETVI); Compound A 10 g ha): 0%
- MATCH Obs ([2]; Compound A 2.5 g ha): 0%
- MATCH Obs ([2]; Compound A 5 g ai/ha): 20%
- MATCH Obs ([2]; Compound A 5 g ha): 10%
- MATCH Obs ([2]; Compound A 8.75 g/ha): 20%
- MATCH Obs ([2]; Compound A 10 g ai/ha): 40%
- ALOMY Obs ([3]; Compound A 5 g ha): 0%
- ALOMY Obs ([3]; Compound A 5 g/ha): 0%
- ALOMY Obs ([3]; Compound A 10 g ha): 0%
- ALOMY Obs ([3]; Compound A 10 g/ha): 0%
- STEME Obs (Stellaria media (STEME); Compound A 5 g ai/ha): 50%
- STEME Obs (Stellaria media (STEME); Compound A 8.75 g/ha): 68%
- STEME Obs (Stellaria media (STEME); Compound A 10 g ai/ha): 63%
- CIRAR Obs (Cirsium arvense (CIRAR); Compound A 2.5 g ha): 10%
- CIRAR Obs (Cirsium arvense (CIRAR); Compound A 5 g ha): 20%
- CIRAR Obs (Cirsium arvense (CIRAR); Compound A 8.75 g/ha): 40%
- KCHSC Obs (Kochia scoparia (KCHSC); Compound A 2.5 g ha): 20%
- KCHSC Obs (Kochia scoparia (KCHSC); Compound A 5 g ai/ha): 60%
- KCHSC Obs (Kochia scoparia (KCHSC); Compound A 5 g ha): 40%
- KCHSC Obs (Kochia scoparia (KCHSC); Compound A 10 g ai/ha): 57%
- TRZAW Obs ([4]; Compound A 5 g ai/ha): 7%
- TRZAW Obs ([4]; Compound A 10 g ai/ha): 7%
- CHEAL Obs ([5]; Compound A 2.5 g ha): 50%
- CHEAL Obs ([5]; Compound A 5 g ha): 60%
- TRZAS Obs ([6]; Compound A 2.5 g ha): 0%
- TRZAS Obs ([6]; Compound A 5 g ha): 5%
- VERPE Obs (Veronica persica (VERPE); Compound A 5 g ai/ha): 13%
- VERPE Obs (Veronica persica (VERPE); Compound A 8.75 g/ha): 50%
- VERPE Obs (Veronica persica (VERPE); Compound A 10 g ai/ha): 25%
- LOLMG Obs ([7]; Compound A 5 g ha): 0%
- LOLMG Obs ([7]; Compound A 5 g/ha): 0%
- LOLMG Obs ([7]; Compound A 10 g ha): 0%
- LOLMG Obs ([7]; Compound A 10 g/ha): 0%
- LAMPU Obs (Lamium purpureum (LAMPU); Compound A 2.5 g ha): 80%
- LAMPU Obs (Lamium purpureum (LAMPU); Compound A 5 g ha): 80%
- LAMPU Obs (Lamium purpureum (LAMPU); Compound A 8.75 g/ha): 83%
- GALAP Obs (Galium aparine (GALAP); Compound A 2.5 g ha): 60%
- GALAP Obs (Galium aparine (GALAP); Compound A 5 g ha): 60%

From patent US8652999B1, “Herbicidal compositions comprising 4-amino-3-chloro-5-fluoro-6-(4-chloro-2-fluoro-3-methoxyphenyl)pyridine-2-carboxylic acid or a derivative thereof and a sulfonylaminocarbonyltriazolinone” (Dow AgroSciences, LLC., priority 2012, dated 2014)
